Laboratory results from PubChem BioAssay (NCI).
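These data come from cells grown in 96-well plates and exposed to compound for 48 hours at five concentrations. At the GI50, growth is halved. TGI denotes the concentration required for complete inhibition of growth.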

How the values were obtained:
Assay in all cases: NCI tumour cell line growth inhibition, 48 h
EKVX NSCLC = system: EKVX NSCLC
M14 melanoma = system: M14 melanoma
MOLT-4 leukemia = system: MOLT-4 leukemia
RPMI-8226 leukemia = system: RPMI-8226 leukemia
SF-268 CNS = system: SF-268 CNS
SNB-75 CNS = system: SNB-75 CNS
UACC-62 melanoma = system: UACC-62 melanoma
786-0 renal = system: 786-0 renal
MDA-MB-231 breast = system: MDA-MB-231 breast
MDA-N = system: MDA-N
NCI/ADR-RES ovarian = system: NCI/ADR-RES ovarian
PC-3 prostate = system: PC-3 prostate

| Structure (SMILES) | TGI (EKVX NSCLC) [µM] | TGI (M14 melanoma) [µM] | TGI (MOLT-4 leukemia) [µM] | TGI (RPMI-8226 leukemia) [µM] | TGI (SF-268 CNS) [µM] | TGI (SNB-75 CNS) [µM] | TGI (UACC-62 melanoma) [µM] | TGI (786-0 renal) [µM] | TGI (MDA-MB-231 breast) [µM] | TGI (MDA-N) [µM] | TGI (NCI/ADR-RES ovarian) [µM] | TGI (PC-3 prostate) [µM] | GI50 (EKVX NSCLC) [µM] | GI50 (M14 melanoma) [µM] | GI50 (MDA-MB-231 breast) [µM] | GI50 (NCI/ADR-RES ovarian) [µM] | GI50 (SF-268 CNS) [µM] | GI50 (SNB-75 CNS) [µM] | GI50 (RPMI-8226 leukemia) [µM] |
| --- | --- | --- | --- | --- | --- | --- | --- | --- | --- | --- | --- | --- | --- | --- | --- | --- | --- | --- | --- |
| N#CC12Cc3cc4c(cc3-c3cccc(c31)CCN2C(=O)c1ccccc1)OCO4 (stereo unspecified) | > 100 | > 100 | > 100 | > 100 | > 100 | 62.8 | > 100 |  |  |  |  |  |  |  |  |  |  |  |  |
| Clc1ccccc1/C=c1\nc(-c2ccccc2)n2c1nc1ccccc12 | 62.9 | > 100 | > 100 | > 100 | 54.6 |  | > 100 | > 100 | 73.1 | > 100 | > 100 | 27.9 |  |  |  |  |  |  |  |
| CC(C)(C)OC(=O)NC(CCCCNC(=O)OCc1ccccc1)C(=O)NCCNc1ccc(NCCNC(=O)C(CCCCNC(=O)OCc2ccccc2)NC(=O)OC(C)(C)C)c2c1C(=O)c1ccccc1C2=O (stereo unspecified) | > 100 | > 100 | > 100 | > 27.4 | > 64.6 | 70.4 | > 100 | > 100 | 38.2 | > 100 | > 100 | > 100 |  |  |  |  |  |  |  |
| COc1ccc(C(=O)C2=NON3OC23C(=O)c2ccc(OC)cc2)cc1 (stereo unspecified) | 34.1 | 31 | > 21.9 | > 50.7 | 40.2 | 43.6 | 37 | 10.6 |  |  |  |  |  |  |  |  |  |  |  |
| O=C(O[C@@H](/C=C/c1ccccc1)P1(=O)N(Cc2ccccc2)[C@H]2CCCC[C@@H]2N1Cc1ccccc1)c1ccccc1 | > 100 | > 100 |  | 7.31 | > 100 | > 100 | 7.47 | > 100 | 6.95 | > 100 | > 100 | 8.54 |  |  |  |  |  |  |  |
| O=c1[nH]c(Nc2ccc(Cl)c(C(F)(F)F)c2)nc2nc[nH]c12 | > 100 | > 100 | 62.4 | > 100 | > 100 | > 100 | > 100 | 74.8 | > 100 | > 100 | > 100 | > 100 |  |  |  |  |  |  |  |
| CN(C)c1ccc(C=Nc2ccc(-c3nc4ccccc4[nH]3)cc2)cc1 | > 100 | > 100 | > 100 | > 100 | > 100 | > 100 |  | > 100 | > 100 | > 100 | 27.7 | > 100 |  |  |  |  |  |  |  |
| COCC1CCCN1c1ccc(C=N/C(C#N)=C(\N)C#N)cc1 (stereo unspecified) | > 100 | > 100 |  |  | > 100 | 58.1 |  |  | > 100 |  | > 100 |  | > 100 | > 100 | 18.7 | > 100 | 67.8 | 23.2 |  |
| OCc1cn(C(c2ccccc2)(c2ccccc2)c2ccccc2)cn1 |  | > 100 | > 100 | > 100 |  | 68.5 |  |  | > 100 | > 100 | > 100 | > 100 |  |  |  |  |  |  |  |
| c1ccc(-c2nnn3c2NC2=C(CCCC2)C3c2ccccc2)cc1 (stereo unspecified) |  | 35.5 | 24.7 | 31.9 | 48.9 |  | 33.7 | 36.4 | 64.6 | 32.3 | 52.4 | 34.3 |  |  |  |  |  |  |  |
| COc1c(CC=C(C)C)c(O)c(C(CC(C)C)c2c(O)c3c(c(C(C)=O)c2O)OC(C(C)(C)O)C3)c(O)c1C(C)=O (stereo unspecified) | > 12.5 | > 12.5 | 5.9 | 3.19 | > 12.5 | > 12.5 | > 12.5 | > 12.5 |  | > 12.5 | 11.1 | 10 |  |  |  |  |  |  |  |
| OC(c1ccccc1)(c1ccccc1)c1nccc2ccccc12 | 83.5 | 49.9 | 59.4 | > 100 | > 100 |  | > 100 | > 100 | > 100 | > 100 | > 100 | > 100 |  |  |  |  |  |  |  |
| CC(O)(Cc1ccccc1C#N)Cc1ccccc1C#N | > 100 | > 100 | > 100 |  | > 100 | 98.9 | > 100 | > 100 | > 100 | > 100 | > 100 | > 100 |  |  |  |  |  |  |  |
| CC(=O)OC1CC[C@@]2(C)C(=CC[C@@H]3[C@@H]2CC[C@]2(C)Nc4nn(S(C)(=O)=O)cc4C[C@@H]32)C1 (stereo partly specified) |  | 36.3 | 53.9 | > 100 |  | > 100 | 50.2 |  | > 100 | 74.5 | > 100 | > 100 |  |  |  |  |  |  |  |
| Cc1coc2c1C[C@@]1(C)[C@H](CCC[C@@H]1C)[C@H]2O | > 100 | > 100 | 59.7 | 62.3 | > 100 |  | > 100 |  | 55.9 | > 100 | 68.3 | > 100 |  |  |  |  |  |  |  |
| COCCNCc1ccc(-c2cc3nccc(Oc4ccc(NC(=S)NC(=O)Cc5ccc(F)cc5)cc4F)c3s2)nc1 | 6.96 |  |  | 5.13 | 4.73 |  |  |  | 4.1 |  | 5.2 |  | 2.5 |  | 1.97 | 2.02 | 1.88 |  | 2.04 |
| O=C(O)c1ccc(C(=O)c2ccccc2C(=O)O)cc1C(=O)O | > 100 | > 100 | > 100 | > 100 | > 100 | > 100 | > 100 | > 100 | > 100 | > 100 | > 100 | > 100 |  |  |  |  |  |  |  |
| CCOC(=O)C(/C(=N/S(=O)(=O)c1cc(C)c(Cl)cc1[S-])[n+]1ccc(N(C)C)cc1)=C(/O)c1ccc([N+](=O)[O-])cc1 |  | 96.6 | > 100 | 63.7 | > 100 |  | > 100 | > 100 | > 100 | > 100 | > 100 | 68.6 |  |  |  |  |  |  |  |
